For this test, the system named is HCV replicon (replicon cells). The experiment in a line: Replicon response to antiviral agent(s): luciferase replicon inhibition, combination of HCV inhibitor and therapeutic agent. It counts as cell-based. The following applies: in combination with Cpd 661; range over the combination ratios (Cpd 661:agent) tested; replicon cells treated three days; luciferase (Bright Glo). The method, then: Replicon cells were seeded at 5000 cells/well in 96-well plates and were treated with a HCV inhibitor and/or a HCV therapeutic agent for three days. The growth medium consisted of a final concentration of 0.5% DMSO and 10% fetal bovine serum.
The HCV therapeutic agents, an interferon-α, a NS5b HCV polymerase inhibitor Compound 1p and a NS3/NS4a HCV protease inhibitor Compound 2p in the compound treatment samples were each serially diluted to the concentration ratios indicated in Table 1. Replicon cells in the untreated control were not treated with a HCV inhibitor or therapeutic agent. To each concentration of therapeutic agent, the HCV inhibitor Compound 661 was titrated. After three days, Bright Glo agent was used to detect luciferase activity. The activity of the medium without cells was measured as the background control. Replicon inhibition was calculated using the following formula: […]
Take `CC(C)CCn1c(=O)c(C2=Nc3ccccc3S(=O)(=O)N2)c(O)c2ccccc21` [Cpd 1p, 3-(1,1-dioxido-2H-1,2,4-benzothiadiazin-3-yl)-4-hydroxy-1-(3-methylbutyl)quinolin-2(1H)-one]: the “Combination Index IC50” value is recorded as 0.19-0.94, the “Combination Index IC75” value is recorded as 0.13-0.61 and the “Combination Index IC90” value is 0.09-0.4.

For the compound `C=C[C@H]1C[C@@]1(NC(=O)[C@@H]1C[C@@H](Oc2cc(-c3ccccc3)nc3cc(OC)ccc23)CN1C(=O)[C@@H](NC(=O)OC(C)(C)C)C(C)(C)C)C(=O)NS(=O)(=O)C1CC1` [Cpd 2p, N-(tert-butoxycarbonyl)-3-methyl-L-valyl-(4R)-N-{(1S,2R)-1-[(cyclopropylsulfonyl)carbamoyl]-2-ethenylcyclopropyl}-4-[(7-methoxy-2-phenylquinolin-4-yl)oxy]-L-prolinamide], the “Combination Index IC50” value is recorded as 0.26-0.91, the “Combination Index IC75” value is 0.27-0.66 and the “Combination Index IC90” value is recorded as 0.29-0.48.

For the compound interferon-α, the “Combination Index IC50” value was 0.36-0.84, the “Combination Index IC75” value was 0.42-0.78 and the “Combination Index IC90” value was 0.35-0.72.

Source of the values: US8927576B2, “HCV inhibitor and therapeutic agent combinations” (PTC Therpeutics, Inc., priority 2009, dated 2015).
